Tested on: HBsAg
Assay: HBsAg assay (chemiluminescence immunoassay of secreted HBsAg)
Assay type: cell-based, HBV
Settings: Hepatitis B virus, HepG2.2.15, HBsAg secretion, HepG2.2.15 cells, CLIA of culture supernatant
Procedure, shortened: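 HepG2.2.15 cells, in duplicate, treated with three-fold serial compound dilutions (1% DMSO final); secreted HBsAg in supernatant quantified by chemiluminescence immunoassay; IC50 is the concentration reducing HBsAg secretion by 50% versus the DMSO control.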

| Compound | IC50 |
| --- | --- |
| CC(=O)N1CCN(c2cc(F)nc(N3CCc4nc(-c5ncccn5)ncc4C3C)c2)C(=O)C1 (centres unmarked) [Example 127, 4-Acetyl-1-[2-fluoro-6-(5-methyl-2-pyrimidin-2-yl-7,8-dihydro-5H-pyrido[4,3-d]pyrimidin-6-yl)-4-pyridyl]piperazin-2-one] | 494 nM |
| CC1c2cnc(-c3ncccn3)nc2CCN1c1cc(N2CCN(S(C)(=O)=O)CC2=O)cc(F)n1 (centres unmarked) [Example 128, 1-[2-Fluoro-6-(5-methyl-2-pyrimidin-2-yl-7,8-dihydro-5H-pyrido[4,3-d]pyrimidin-6-yl)-4-pyridyl]-4-methylsulfonyl-piperazin-2-one] | 417 nM |
| CC1c2cnc(-c3ncccn3)nc2CCN1c1cc(F)cc(N2CC3(COC3)C2)n1 (centres unmarked) [Example 129, 6-[4-fluoro-6-(5-methyl-2-pyrimidin-2-yl-7,8-dihydro-5H-pyrido[4,3-d]pyrimidin-6-yl)-2-pyridyl]-2-oxa-6-azaspiro[3.3]heptane] | 36 nM |
| CC1c2cnc(-c3ncccn3)nc2CCN1c1cc(N2CC3(COC3)C2)cc(F)n1 (centres unmarked) [Example 130, 6-[2-fluoro-6-(5-methyl-2-pyrimidin-2-yl-7,8-dihydro-5H-pyrido[4,3-d]pyrimidin-6-yl)-4-pyridyl]-2-oxa-6-azaspiro[3.3]heptane] | 12 nM |
| CC(=O)NC1CN(c2cc(F)cc(N3CCc4nc(-c5ncccn5)ncc4C3C)n2)C1 (centres unmarked) [Example 131, N-[1-[4-fluoro-6-(5-methyl-2-pyrimidin-2-yl-7,8-dihydro-5H-pyrido[4,3-d]pyrimidin-6-yl)-2-pyridyl]azetidin-3-yl]acetamide] | 43 nM |
| CC(=O)NC1CN(c2cc(F)nc(N3CCc4nc(-c5ncccn5)ncc4C3C)c2)C1 (centres unmarked) [Example 132, N-[1-[2-fluoro-6-(5-methyl-2-pyrimidin-2-yl-7,8-dihydro-5H-pyrido[4,3-d]pyrimidin-6-yl)-4-pyridyl]azetidin-3-yl]acetamide] | 24 nM |
| CC1CN(c2cc(F)cc(N3CCc4nc(-c5ncccn5)ncc4C3C)n2)CC(=O)N1 (centres unmarked) [Example 133, 4-[4-fluoro-6-(5-methyl-2-pyrimidin-2-yl-7,8-dihydro-5H-pyrido[4,3-d]pyrimidin-6-yl)-2-pyridyl]-6-methyl-piperazin-2-one] | 9 nM |
| CC1CN(c2cc(F)nc(N3CCc4nc(-c5ncccn5)ncc4C3C)c2)CC(=O)N1 (centres unmarked) [Example 134, 4-[2-fluoro-6-(5-methyl-2-pyrimidin-2-yl-7,8-dihydro-5H-pyrido[4,3-d]pyrimidin-6-yl)-4-pyridyl]-6-methyl-piperazin-2-one] | 15 nM |
| CC1c2cnc(-c3ncccn3)nc2CCN1c1cc(N2CC(CO)C2)cc(F)n1 (centres unmarked) [Example 135, [1-[2-fluoro-6-(5-methyl-2-pyrimidin-2-yl-7,8-dihydro-5H-pyrido[4,3-d]pyrimidin-6-yl)-4-pyridyl]azetidin-3-yl]methanol] | 8 nM |
| CC1c2cnc(-c3ncccn3)nc2CCN1c1cc(F)cc(N2CC(CO)C2)n1 (centres unmarked) [Example 136, [1-[4-fluoro-6-(5-methyl-2-pyrimidin-2-yl-7,8-dihydro-5H-pyrido[4,3-d]pyrimidin-6-yl)-2-pyridyl]azetidin-3-yl]methanol] | 23 nM |
| CC1c2cnc(-c3ncccn3)nc2CCN1c1cc(NCCCCC(N)=O)cc(F)n1 (centres unmarked) [Example 137, 5-[[2-Fluoro-6-(5-methyl-2-pyrimidin-2-yl-7,8-dihydro-5H-pyrido[4,3-d]pyrimidin-6-yl)-4-pyridyl]amino]pentanamide] | 120 nM |
| CC1c2cnc(-c3ncccn3)nc2CCN1c1cc(NC2CCS(=O)(=O)CC2)cc(F)n1 (centres unmarked) [Example 138, N-(1,1-dioxothian-4-yl)-2-fluoro-6-(5-methyl-2-pyrimidin-2-yl-7,8-dihydro-5H-pyrido[4,3-d]pyrimidin-6-yl)pyridin-4-amine] | 663 nM |
| CC(=O)N1CC(Nc2cc(F)cc(N3CCc4nc(-c5ncccn5)ncc4C3C)n2)C1 (centres unmarked) [Example 139, 1-[3-[[4-fluoro-6-(5-methyl-2-pyrimidin-2-yl-7,8-dihydro-5H-pyrido[4,3-d]pyrimidin-6-yl)-2-pyridyl]amino]azetidin-1-yl]ethanone] | 1550 nM |
| CC(=O)N1CC(Nc2cc(F)nc(N3CCc4nc(-c5ncccn5)ncc4C3C)c2)C1 (centres unmarked) [Example 140, 1-[3-[[2-fluoro-6-(5-methyl-2-pyrimidin-2-yl-7,8-dihydro-5H-pyrido[4,3-d]pyrimidin-6-yl)-4-pyridyl]amino]azetidin-1-yl]ethanone] | 972 nM |
| CC1c2cnc(-c3ncccn3)nc2CCN1c1cc(N(C)CCCCC(N)=O)cc(F)n1 (centres unmarked) [Example 141, 5-[[2-fluoro-6-(5-methyl-2-pyrimidin-2-yl-7,8-dihydro-5H-pyrido[4,3-d]pyrimidin-6-yl)-4-pyridyl]-methyl-amino]pentanamide] | 43 nM |
| CC1c2cnc(-c3ncccn3)nc2CCN1c1cc(F)cc(N(C)CCCCC(N)=O)n1 (centres unmarked) [Example 142, 5-[[4-fluoro-6-(5-methyl-2-pyrimidin-2-yl-7,8-dihydro-5H-pyrido[4,3-d]pyrimidin-6-yl)-2-pyridyl]-methyl-amino]pentanamide] | 25 nM |

| Compound | IC50 |
| --- | --- |
| CC1c2cnc(-c3ncccn3)nc2CCN1c1cc(N(CCCCC(N)=O)CC2CC2)cc(F)n1 (centres unmarked) [Example 143, 5-[Cyclopropylmethyl-[2-fluoro-6-(5-methyl-2-pyrimidin-2-yl-7,8-dihydro-5H-pyrido[4,3-d]pyrimidin-6-yl)-4-pyridyl]amino]pentanamide] | 176 nM |
| CC1c2cnc(-c3ncccn3)nc2CCN1c1cc(N2CC(C#N)C2)cc(F)n1 (centres unmarked) [Example 144, 1-[2-Fluoro-6-(5-methyl-2-pyrimidin-2-yl-7,8-dihydro-5H-pyrido[4,3-d]pyrimidin-6-yl)-4-pyridyl]azetidine-3-carbonitrile] | 28 nM |
| CC1c2cnc(-c3ncccn3)nc2CCN1c1cc(N2CC(C(=O)O)CC2=O)cc(F)n1 (centres unmarked) [Example 145, 1-[2-Fluoro-6-(5-methyl-2-pyrimidin-2-yl-7,8-dihydro-5H-pyrido[4,3-d]pyrimidin-6-yl)-4-pyridyl]-5-oxo-pyrrolidine-3-carboxylic acid] | 5340 nM |
| CC1c2cnc(-c3ncccn3)nc2CCN1c1cc(N2CCS(=O)(=O)CC2)cc(F)n1 (centres unmarked) [Example 146, 4-[2-Fluoro-6-(5-methyl-2-pyrimidin-2-yl-7,8-dihydro-5H-pyrido[4,3-d]pyrimidin-6-yl)-4-pyridyl]-1,4-thiazinane1,1-dioxide] | 38 nM |
| CC1c2cnc(-c3ncccn3)nc2CCN1c1cc(F)nc(N2CCC2)c1 (centres unmarked) [Example 147, 6-[2-(Azetidin-1-yl)-6-fluoro-4-pyridyl]-5-methyl-2-pyrimidin-2-yl-7,8-dihydro-5H-pyrido[4,3-d]pyrimidine] | 18 nM |
| COC1CN(c2cc(N3CCc4nc(-c5ncccn5)ncc4C3C)cc(F)n2)C1 (centres unmarked) [Example 148, 6-[2-Fluoro-6-(3-methoxyazetidin-1-yl)-4-pyridyl]-5-methyl-2-pyrimidin-2-yl-7,8-dihydro-5H-pyrido[4,3-d]pyrimidine] | 21 nM |
| CC1c2cnc(-c3ncccn3)nc2CCN1c1cc(F)nc(N2CC(F)(F)C2)c1 (centres unmarked) [Example 149, 6-[2-(3,3-Difluoroazetidin-1-yl)-6-fluoro-4-pyridyl]-5-methyl-2-pyrimidin-2-yl-7,8-dihydro-5H-pyrido[4,3-d]pyrimidine] | 20 nM |
| CC1c2cnc(-c3ncccn3)nc2CCN1c1cc(F)nc(N2CC(F)C2)c1 (centres unmarked) [Example 150, 6-[2-Fluoro-6-(3-fluoroazetidin-1-yl)-4-pyridyl]-5-methyl-2-pyrimidin-2-yl-7,8-dihydro-5H-pyrido[4,3-d]pyrimidine] | 20 nM |
| CC1c2cnc(-c3ncccn3)nc2CCN1c1cc(N2CC3(COC3)CC2=O)cc(F)n1 (centres unmarked) [Example 151, 7-[2-Fluoro-6-(5-methyl-2-pyrimidin-2-yl-7,8-dihydro-5H-pyrido[4,3-d]pyrimidin-6-yl)-4-pyridyl]-2-oxa-7-azaspiro[3.4]octan-6-one] | 27 nM |
| CC1CCN(c2cc(F)nc(N3CCc4nc(-c5ncccn5)ncc4C3C)c2)C1=O (centres unmarked) [Example 152, 1-[2-Fluoro-6-(5-methyl-2-pyrimidin-2-yl-7,8-dihydro-5H-pyrido[4,3-d]pyrimidin-6-yl)-4-pyridyl]-3-methyl-pyrrolidin-2-one] | 3 nM |
| CC1c2cnc(-c3ncccn3)nc2CCN1c1cc(N2CC(CO)CC2=O)cc(F)n1 (centres unmarked) [Example 153, 1-[2-Fluoro-6-(5-methyl-2-pyrimidin-2-yl-7,8-dihydro-5H-pyrido[4,3-d]pyrimidin-6-yl)-4-pyridyl]-4-(hydroxymethyl)pyrrolidin-2-one] | 32 nM |
| CC(=O)N(C)c1cc(F)nc(N2CCc3nc(-c4ncccn4)ncc3C2C)c1 (centres unmarked) [Example 154, N-[2-Fluoro-6-(5-methyl-2-pyrimidin-2-yl-7,8-dihydro-5H-pyrido[4,3-d]pyrimidin-6-yl)-4-pyridyl]-N-methyl-acetamide] | 69 nM |
| CCC(=O)N(C)c1cc(F)nc(N2CCc3nc(-c4ncccn4)ncc3C2C)c1 (centres unmarked) [Example 155, N-[2-Fluoro-6-(5-methyl-2-pyrimidin-2-yl-7,8-dihydro-5H-pyrido[4,3-d]pyrimidin-6-yl)-4-pyridyl]-N-methyl-propanamide] | 86 nM |
| CC1c2cnc(-c3ncccn3)nc2CCN1c1cc(N(C)C(=O)C2CC2)cc(F)n1 (centres unmarked) [Example 156, N-[2-Fluoro-6-(5-methyl-2-pyrimidin-2-yl-7,8-dihydro-5H-pyrido[4,3-d]pyrimidin-6-yl)-4-pyridyl]-N-methyl-cyclopropanecarboxamide] | 30 nM |
| CC1c2cnc(-c3ncccn3)nc2CCN1c1cc(N2CCNC2=O)cc(F)n1 (centres unmarked) [Example 157, 1-[2-Fluoro-6-(5-methyl-2-pyrimidin-2-yl-7,8-dihydro-5H-pyrido[4,3-d]pyrimidin-6-yl)-4-pyridyl]imidazolidin-2-one] | 6 nM |
| CC1c2cnc(-c3ncccn3)nc2CCN1c1cc(F)nc(N2CC3(COC3)C2)c1 (centres unmarked) [Example 158, 6-[6-Fluoro-4-(5-methyl-2-pyrimidin-2-yl-7,8-dihydro-5H-pyrido[4,3-d]pyrimidin-6-yl)-2-pyridyl]-2-oxa-6-azaspiro[3.3]heptane] | 48 nM |
